Measured values reported in PubChem BioAssay AID1963435 (Molecular Pharmacology Branch, DTP, NCI, 2024).
pIC50: −log10 of the molar value.

Test system: PANC-1 complex spheroid growth, percent test/control
Assay: Anticancer human tumor PANC-1 cell line growth inhibition [Asc];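 also: spheroids exposed to agents for 7 days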;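 as to viability, T/C: percent viability relative to DMSO vehicle wells taken as 100%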
Conditions: for pIC50: curve of first compound; for viability, T/C: stronger effect = lower value; active = viability on the fitted dose curve at most 10% of control; inactive = the rest
Outline: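 Concentration series start at each agent's clinical Cmax, or at 10 microM when none is established, and drop in half-log steps; agents are applied alone or together to complex spheroids built with HUVEC and hMSC.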

O=C(c1cc(Cc2n[nH]c(=O)c3ccccc23)ccc1F)N1CCN(C(=O)C2CC2)CC1 + CNC(C)C(=O)NC1CN(S(=O)(=O)c2cccc(S(=O)(=O)N3CCC4CCC(C(=O)NC(c5ccccc5)c5ccccc5)N4C(=O)C(NC(=O)C(C)NC)C3)c2)CCC2CCC(C(=O)NC(c3ccccc3)c3ccccc3)N2C1=O
inactive: viability, T/C (second compound 0.00316 µM, first compound 0.0316 µM) 132% | viability, T/C (second compound 0.00316 µM, first compound 0.1 µM) 111% | viability, T/C (second compound 0.00316 µM, first compound 0.316 µM) 134% | viability, T/C (second compound 0.00316 µM, first compound 1 µM) 133% | viability, T/C (second compound 0.00316 µM, first compound 3.16 µM) 97.3% | viability, T/C (second compound 0.00316 µM, first compound 10 µM) 63.4% | viability, T/C (second compound 0.01 µM, first compound 0.0316 µM) 109% | viability, T/C (second compound 0.01 µM, first compound 0.1 µM) 100% | viability, T/C (second compound 0.01 µM, first compound 0.316 µM) 105% | viability, T/C (second compound 0.01 µM, first compound 1 µM) 104% | viability, T/C (second compound 0.01 µM, first compound 3.16 µM) 103% | viability, T/C (second compound 0.01 µM, first compound 10 µM) 98.4% | viability, T/C (second compound 0.0316 µM, first compound 0.0316 µM) 107% | viability, T/C (second compound 0.0316 µM, first compound 0.1 µM) 96.2% | viability, T/C (second compound 0.0316 µM, first compound 0.316 µM) 96.7% | viability, T/C (second compound 0.0316 µM, first compound 1 µM) 110% | viability, T/C (second compound 0.0316 µM, first compound 3.16 µM) 112% | viability, T/C (second compound 0.0316 µM, first compound 10 µM) 91.2% | viability, T/C (second compound 0.1 µM, first compound 0.0316 µM) 91.2% | viability, T/C (second compound 0.1 µM, first compound 0.1 µM) 100% | viability, T/C (second compound 0.1 µM, first compound 0.316 µM) 92.3% | viability, T/C (second compound 0.1 µM, first compound 1 µM) 99.1% | viability, T/C (second compound 0.1 µM, first compound 3.16 µM) 101% | viability, T/C (second compound 0.1 µM, first compound 10 µM) 81.8% | viability, T/C (second compound 0.316 µM, first compound 0.0316 µM) 103% | viability, T/C (second compound 0.316 µM, first compound 0.1 µM) 103% | viability, T/C (second compound 0.316 µM, first compound 0.316 µM) 89.2% | viability, T/C (second compound 0.316 µM, first compound 1 µM) 95.4% | viability, T/C (second compound 0.316 µM, first compound 3.16 µM) 99.2% | viability, T/C (second compound 0.316 µM, first compound 10 µM) 93.3% | viability, T/C (second compound 1 µM, first compound 0.0316 µM) 93.7% | viability, T/C (second compound 1 µM, first compound 0.1 µM) 106% | viability, T/C (second compound 1 µM, first compound 0.316 µM) 87.8% | viability, T/C (second compound 1 µM, first compound 1 µM) 93.2% | viability, T/C (second compound 1 µM, first compound 3.16 µM) 89.9% | viability, T/C (second compound 1 µM, first compound 10 µM) 85.2%
< 5.00: pIC50 (second compound 0.00316 µM) | pIC50 (second compound 0.01 µM) | pIC50 (second compound 0.0316 µM) | pIC50 (second compound 0.1 µM) | pIC50 (second compound 0.316 µM) | pIC50 (second compound 1 µM)

C#Cc1c(F)ccc2cc(O)cc(-c3ncc4c(N5CC6CCC(C5)N6)nc(OCC56CCCN5CC(F)C6)nc4c3F)c12 (centres undefined) + CCN1C(C(=O)NC23CCC(C(=O)O)(CC2)CC3)C(c2cccc(Cl)c2F)C2(C(=O)Nc3cc(Cl)ccc32)C12CCCCC2
< 5.00: pIC50 (second compound 0.00949 µM) | pIC50 (second compound 0.03 µM) | pIC50 (second compound 0.0949 µM) | pIC50 (second compound 0.3 µM) | pIC50 (second compound 0.949 µM) | pIC50 (second compound 3 µM)
inactive: viability, T/C (second compound 0.00949 µM, first compound 0.0316 µM) 99.1% | viability, T/C (second compound 0.00949 µM, first compound 0.1 µM) 79.1% | viability, T/C (second compound 0.00949 µM, first compound 0.316 µM) 89.9% | viability, T/C (second compound 0.00949 µM, first compound 1 µM) 90.8% | viability, T/C (second compound 0.00949 µM, first compound 3.16 µM) 96.3% | viability, T/C (second compound 0.00949 µM, first compound 10 µM) 84% | viability, T/C (second compound 0.03 µM, first compound 0.0316 µM) 93.3% | viability, T/C (second compound 0.03 µM, first compound 0.1 µM) 90.2% | viability, T/C (second compound 0.03 µM, first compound 0.316 µM) 83.4% | viability, T/C (second compound 0.03 µM, first compound 1 µM) 92.6% | viability, T/C (second compound 0.03 µM, first compound 3.16 µM) 94.3% | viability, T/C (second compound 0.03 µM, first compound 10 µM) 82.3% | viability, T/C (second compound 0.0949 µM, first compound 0.0316 µM) 94% | viability, T/C (second compound 0.0949 µM, first compound 0.1 µM) 84.3% | viability, T/C (second compound 0.0949 µM, first compound 0.316 µM) 85% | viability, T/C (second compound 0.0949 µM, first compound 1 µM) 82.2% | viability, T/C (second compound 0.0949 µM, first compound 3.16 µM) 90.6% | viability, T/C (second compound 0.0949 µM, first compound 10 µM) 88.8% | viability, T/C (second compound 0.3 µM, first compound 0.0316 µM) 97% | viability, T/C (second compound 0.3 µM, first compound 0.1 µM) 84.3% | viability, T/C (second compound 0.3 µM, first compound 0.316 µM) 92.6% | viability, T/C (second compound 0.3 µM, first compound 1 µM) 93.2% | viability, T/C (second compound 0.3 µM, first compound 3.16 µM) 98.7% | viability, T/C (second compound 0.3 µM, first compound 10 µM) 90.9% | viability, T/C (second compound 0.949 µM, first compound 0.0316 µM) 98.4% | viability, T/C (second compound 0.949 µM, first compound 0.1 µM) 85.5% | viability, T/C (second compound 0.949 µM, first compound 0.316 µM) 92.8% | viability, T/C (second compound 0.949 µM, first compound 1 µM) 90.5% | viability, T/C (second compound 0.949 µM, first compound 3.16 µM) 93.7% | viability, T/C (second compound 0.949 µM, first compound 10 µM) 82.8% | viability, T/C (second compound 3 µM, first compound 0.0316 µM) 104% | viability, T/C (second compound 3 µM, first compound 0.1 µM) 91.7% | viability, T/C (second compound 3 µM, first compound 0.316 µM) 89.2% | viability, T/C (second compound 3 µM, first compound 1 µM) 87.7% | viability, T/C (second compound 3 µM, first compound 3.16 µM) 95.1% | viability, T/C (second compound 3 µM, first compound 10 µM) 82.6%
